SMILES strings stand for the structures.

The series in a line: gradient 5% acetonitrile 3 min, to 50% in 2 min, to 85% in 15 min, held 3 min, 100 µL/min. The settings on record: column: Zorbax Extend-C18 2.1 x 50 mm; eluents: water / acetonitrile, 0.1% formic acid. Summed up:
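A Zorbax Extend-C18 column (2.1 × 50 mm, 1.8 μm) run at 100 μL/min with water and acetonitrile, both containing 0.1% formic acid, separated mixtures of ~100 pure standards. The HPLC was coupled to a quadrupole time-of-flight mass spectrometer operated in positive and negative ionization mode, with dead and dwell volumes of 40 μL and 900 μL. Each retention time was taken from a computationally picked adduct peak that was then manually inspected.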
In turn, `O=C(Nc1ccc(F)cc1)c1ccc(Cl)s1` came in with an RP-LC retention time of 908 s. The value for `Cc1noc(-c2cc(=O)n(CC(=O)Nc3ccc(Cl)cc3)c3ccccc23)n1` was 915 s; that for `Cc1ccc(Cl)cc1N1CCN(c2ccc3cc(S(=O)(=O)N4CCCC4)ccc3n2)CC1` was 1240 s. Consider `Cc1cc(Cl)ccc1NS(=O)(=O)c1cc(-c2[nH]ncc2C(=O)N2CCCC2)oc1C`, for which the RP-LC retention time worked out at 772 s. `COCCN(CCOC)Cc1c(C)[nH]c2c(C)c(C)ccc2c1=O`: the RP-LC retention time worked out at 605 s. Molecule `Cc1c(S(=O)(=O)N2CCOCC2)cc(C(=O)N2CCCC2)n1C` had an RP-LC retention time of 658 s.

For the molecule `CN(Cc1ccccc1)C(=O)c1ccc2c(c1)N(Cc1ccccc1)C(=O)CO2`, the RP-LC retention time was 878 s. The value for `Cc1cc(F)ccc1NC(=O)C1(C)Oc2cccnc2NC1=O` (stereo unspecified) was 687 s.

In turn, `CC(C)CCNC(=O)CSc1nc(N2CCc3ccccc3C2)nc2ccccc12` yielded an RP-LC retention time of 917 s. In the case of `COc1ccc(CN2C(=O)CC(c3ccc(OC)cc3)CC2=O)cc1`, the RP-LC retention time was found to be 965 s. The value for `Cc1ccccc1Nc1c(-c2ccc(N(C)C)cc2)nc2ccc(Cl)cn12` was 815 s; that for `Cc1ccc(CCNC(=O)C2CCCN(c3nnc(C)c4c(C)n(-c5ccccc5)nc34)C2)cc1` (stereo unspecified) was 762 s.

In the case of `O=C1C2N=NN(Cc3nc(-c4ccccc4)no3)C2C(=O)N1c1ccc(F)cc1` (stereo unspecified), the RP-LC retention time is 945 s. Then `Cc1ccc(N2CCC(NC(=O)Cc3ccc(Cl)cc3)C2=O)cc1C` (stereo unspecified), with 946 s; and `O=C(c1cc2c(s1)-c1ccsc1CC2)N1CCN(c2ccccn2)CC1`, with 698 s.

Molecule `COc1ccccc1C1(CNC(=O)Cc2ccccc2Cl)CCOCC1` yielded an RP-LC retention time of 817 s. The value for `CC(C)n1nc2c(S(=O)(=O)N3CCOCC3)cccn2c1=O` was 670 s; that for `CN(C)CCCNc1ncnc2c1cnn2-c1cccc(Cl)c1` was 653 s; that for `COc1cccc(CNC(=O)C2CCCN2S(=O)(=O)c2cc3c(cc2C)NC(=O)CO3)c1` (stereo unspecified) was 721 s. Consider `O=C1CN(c2ncnc3[nH]ncc23)CC(=O)N1CCc1ccccc1`, for which the RP-LC retention time came out at 662 s. As to `COc1ccc(-c2noc(C3CC(=O)N(c4ccc(C)cc4)C3)n2)c(OC)c1` (stereo unspecified), the RP-LC retention time is 888 s.

Regarding `Cc1ncc2c(n1)C[C@@H]1CC[C@H]2N1C(=O)c1ccnn1C`, the RP-LC retention time was determined as 584 s. The molecule `CCOc1ccc(C(=O)N2CCC3(CC2)c2nccn2-c2ccccc2CN3C)cc1` returned an RP-LC retention time of 632 s. Molecule `Cc1cccc(-c2[nH]ncc2-c2ccc3ncccc3n2)n1` registered an RP-LC retention time of 635 s. For the molecule `COCCCn1cnc2c(-c3ccccc3)cn(CC(=O)NCc3ccc4c(c3)OCO4)c2c1=O`, the RP-LC retention time is 855 s. `Cc1cc(C(=O)Nc2ccc(Cl)cn2)c2ccccc2n1` displayed an RP-LC retention time of 694 s. The value for `COc1ccc(-c2noc(Cc3nnc(-c4cc(F)cc(F)c4)o3)n2)cc1OC` was 924 s; that for `Cc1cccc(CNC(=O)C2CCCN(S(=O)(=O)c3cn(C(C)C)cn3)C2)c1` (stereo unspecified) was 781 s. The value for `CCc1nccn1Cc1nc(-c2cccc(F)c2)no1` was 625 s. The value for `CCOc1ccccc1NC(=O)c1cn(-c2cc(N3CCC(C)CC3)ncn2)cn1` was 1300 s; that for `CCN1CCN(c2ccc(NC(=O)c3ccc(Cl)cc3)cn2)C1=O` was 775 s; that for `Cc1noc(C)c1CC(=O)N1CC(n2cc(COc3ccc(F)cc3)nn2)C1` was 721 s. `CCOc1ccccc1-c1nc(CN(c2ccccc2)S(=O)(=O)c2cccs2)c(C)o1`: the RP-LC retention time came out at 1160 s.

Regarding `Cc1[nH]c(=O)[nH]c(=O)c1S(=O)(=O)N1CCCC1`, the RP-LC retention time worked out at 583 s.

As for `CCN1C(=O)C2(CCN(S(=O)(=O)c3ccc(C)c(F)c3)CC2)c2ccccc21`, the RP-LC retention time was 1120 s. The value for `O=C(c1cccn1Cc1noc(C2CC2)n1)N1CCN(c2ccccc2)CC1` was 946 s; that for `CCN1CCC[C@H]1CNC(=O)c1c(O)c(Cl)cc(Cl)c1OC` was 777 s. The value for `COC(=O)c1nnn(-c2cccc(Cl)c2C)c1C(=O)OC` was 936 s; that for `CC(C)c1cc(C(=O)Nc2cccc(F)c2)nc2ccnn12` was 1140 s; that for `CCn1nc(CNC(=O)Cc2ccccc2F)c2ccccc21` was 791 s. The value for `CS(=O)(=O)N1CCC(C(=O)Nc2ccc(F)c(Cl)c2)Oc2ccccc21` (stereo unspecified) was 986 s; that for `COc1cccc(-c2nnc(SCC(=O)NCc3ccco3)n2-c2ccccc2)c1` was 739 s. `COc1ccc(S(=O)(=O)Nc2cccc(-c3cn4ccccc4n3)c2)cc1` had an RP-LC retention time of 645 s. Then `COc1cccc(NC(=O)CN2C(=O)C3CCCCN3c3ccc(S(=O)(=O)N(C)C)cc32)c1` (stereo unspecified), with 902 s; and `COc1cc2c(cc1OC)CN(C(=O)CCc1sc(C)nc1-c1cccs1)CC2`, with 799 s. The value for `O=C(Nc1nc2ccc([N+](=O)[O-])cc2s1)c1ccc(S(=O)(=O)N2CCCCC2)cc1` was 1020 s. The value for `COCCCNC(=O)C1CCN(C(=O)c2ncn3c2COC(c2ccc(F)cc2)C3)CC1` (stereo unspecified) was 626 s. `Cc1ccc(Cl)cc1N1CCN(C(=O)c2csc(C(=O)NC3CC3)n2)CC1` came in with an RP-LC retention time of 972 s. Then `O=C(NCCN1CCOCC1)C(=O)Nc1ccccc1Cl`, with 549 s; and `Cn1nc(-c2cccc(NC(=O)c3ccc4ccccc4n3)c2)ccc1=O`, with 829 s.

On to `CCOc1ccc(CC(=O)N2CCCN(c3cc(-c4ccc(Br)cc4)[nH]n3)CC2)cc1OCC`, for which the RP-LC retention time was determined as 842 s. The value for `O=C(Nc1cccc(Cl)c1)N1CCN(CCn2c(-c3ccncc3)nc3cccnc32)CC1` was 623 s. Then `CNC(=O)C1CCCN(c2nc3ncn(CC(=O)Nc4ccc5c(c4)OCCO5)c(=O)c3s2)C1` (stereo unspecified), with 627 s; and `O=C(NCCCN1CCCC1=O)c1ccc2ncnc(N3CCCC3)c2c1`, with 570 s. Then `CCSc1nnc(NC(=O)c2csc(Nc3cccnc3)n2)s1`, with 588 s; and `Cc1ccc(CNC(=O)Cn2cnc3c(sc4nc(-c5ccccc5)ccc43)c2=O)cc1`, with 880 s. For the molecule `CSc1ccc(CNC(=O)COc2cc(C)nc(N3CCN(c4ccccc4)CC3)n2)cc1`, the RP-LC retention time amounted to 857 s. The value for `CC(NC(=O)Cc1ccccc1F)C(=O)Nc1nc2ccccc2[nH]1` (stereo unspecified) was 638 s. The value for `CC1=C(C(=O)Nc2ccc(C(=O)NCCCN3CCN(C4CCCCC4)CC3)cc2)SCCO1` was 576 s; that for `O=C(c1cccnc1N1CCNC(c2ccccc2)C1)N1CCSCC1` (stereo unspecified) was 606 s; that for `Cc1[nH]c2ccccc2c1C(=O)C(=O)NCC1COc2ccccc2O1` (stereo unspecified) was 832 s. Molecule `CSc1nnc(-c2nn(C)c3c2CN(C(=O)c2cccc(Cl)c2)CC3)n1C` showed an RP-LC retention time of 737 s. Then `COc1nn(C)cc1C(=O)Nc1nnc(-c2csc(C)n2)o1`, with 578 s; and `CSc1ccc(-c2nc3cc(C)ccn3c2Nc2ccccc2C)cc1`, with 790 s. In the case of `COC(=O)c1[nH]c(C)c(C(=O)C(C)N(CC(C)C)C(=O)c2ccccc2Cl)c1C` (stereo unspecified), the RP-LC retention time was 932 s. Then `CCN1c2ccc(F)cc2C(=O)NC12CCN(C(=O)c1ccc3c(c1)OCO3)CC2`, with 749 s. Molecule `COC(=O)c1ccc(CSc2nnc(NC(=O)C3(c4cccs4)CCCC3)s2)o1` returned an RP-LC retention time of 978 s. Then `Cc1cccc(NC(=O)C2CCN(S(=O)(=O)c3cc(-c4noc(C5CC5)n4)cs3)CC2)c1C`, with 1020 s; and `Cc1ccc(NC(=O)N(C)CC2CCOC2)cc1F` (stereo unspecified), with 722 s; and `O=C(c1nc(-c2cccs2)cs1)N1CCN(c2ccccc2)CC1`, with 1130 s. Turning to `COc1ccc(CC(=O)N(C)C2CCN(c3nccnc3OC)C2)cc1` (stereo unspecified), the RP-LC retention time amounted to 684 s. The value for `COCCCNC(=O)C1(CCO)CCN(Cc2ccccc2)C1` (stereo unspecified) was 560 s. Molecule `CC(=O)Nc1ccc(C2(C(=O)NCc3ccco3)CCC2)cc1` came in with an RP-LC retention time of 691 s. Then `Cc1cnc(C(=O)N[C@@H]2CCC[C@@H]2C(=O)NC2CCCC2)cn1`, with 638 s; and `O=c1n(Cc2cccc(C(F)(F)F)c2)nc2c(S(=O)(=O)N3CCOCC3)cccn12`, with 847 s; and `Fc1ccc(-c2noc(-c3ccc(NCCN4CCOCC4)nc3)n2)cc1`, with 687 s.

On to `Cc1nnc(-c2coc(S(=O)(=O)N3CCN(CC(C)C)CC3)c2)o1`, for which the RP-LC retention time is 587 s. Then `O=C(NCCc1c[nH]c2ccccc12)C(=O)NCC(c1ccco1)N1CCOCC1` (stereo unspecified), with 582 s. Then `O=C(c1ccccc1Cl)N1CCN=C1N1CCCCC1`, with 638 s.

`Cc1ccc2nc(C)c(NC(=O)CSCc3ccccc3)c(=O)n2c1` came in with an RP-LC retention time of 662 s. `CCn1cnc(S(=O)(=O)N2CCC(C(=O)NCc3ccc(OC(C)C)cc3)CC2)c1`: the RP-LC retention time worked out at 749 s.

Values taken from the METLIN SMRT retention time set (Domingo-Almenara et al. 2019).
